# Measurements taken from US5095007A, “Alteration of rate and character of hair growth” (priority 1990, dated 1992).
# Legend:
# hamster flank organ = assay: Reduction of hair growth (hair mass) on hamster flank organ after topical application; type: in vivo, Golden Syrian hamster; settings: for Percent Inhibition of Hair Growth: vs vehicle-treated organ
# From the text: L-alanosine was mixed with separate portions of the foregoing vehicle to provide specimens containing 0.1, 0.5, 1, 2, and 6% by weight respectively of the inhibitor and the pH was adjusted to pH 7.5 with sodium hydroxide.
# Four groups (eight animals in each group) of male intact Golden Syrian hamsters were provided. These animals were considered acceptable models for human beard hair growth in that they display oval shaped flank organs, one on each side, each about 8 mm. in major diameter, which grow thick black and coarse hair similar to human beard hair. These organs produce hair in response to androgens in the hamster. The flank organs of each hamster were depilated by applying a thioglycolat-- based chemical depilatory (Surgex), and to one organ of each animal was applied 10-25 μl. of vehicle alone once a day, while to the other organ of each animal was applied an equal amount of vehicle containing inhibitor. After three weeks of such applications (five days a week), the flank organs were shaved and the amount of recovered hair (hair mass) from each was weighed. The extent of reduction in hair growth by the inhibitor was expressed as the percent decrease in hair mass on the organ treated with inhibitor as compared to the organ treated with vehicle alone. As a control, one group of eight animals had both flank organs of each animal treated with vehicle alone.
# A series of compositions was prepared containing various percentages by weight of N-phosphonacetyl-L-aspartic acid (PALA) in the vehicle described in Example 1 above adjusted to pH 4.5, and applied to hamster flank organs under the same conditions as described in Example 1. The reduction in hair growth observed after three weeks was as follows: […]
# [1] = test system: adenosine nucleotide contents of hair follicles; assay: Adenosine nucleotide contents of flank organ hair follicles after topical treatment; type: in vivo, hamster; settings: 10% in vehicle, three days of daily treatments
# Experimental: The effect of the enzyme inhibition, was further shown by measurements of hair follicle nucleotide levels after topical treatment with L-alanosine. A group of eight hamsters was treated topically with L-alanosine (10% in the vehicle above) on one flank organ while the other organ received an equal amount of just the vehicle. After three days of daily treatments, the hair follicles from the flank organs were removed and the adenosine nucleotide contents were determined.
# [2] = test system: adenylosuccinate synthetase; assay: Adenylosuccinate synthetase activity in hamster hair follicles after topical treatment; type: in vivo; settings: 10% solution, twice over a 24 hour period
# [3] = test system: pyrimidine nucleotide content of hair follicles; assay: Pyrimidine nucleotide content of hair follicles after topical treatment; type: in vivo, hamster; settings: same treatment protocol as nucleotide content in Example 1 (10%, three days daily)
# [4] = test system: aspartate transcarbamylase; assay: Aspartate transcarbamylase activity in hamster hair follicles after topical treatment; type: in vivo; settings: 10% solution, two treatments over a 24 hour period
# [5] = L-alanosine 0.5%, 25 μl, pH 7.5, three weeks
# [6] = L-alanosine 1.0%, 25 μl, pH 7.5, three weeks
# [7] = L-alanosine 2.0%, 25 μl, pH 7.5, three weeks
# [8] = L-alanosine 6.0%, 25 μl, pH 7.5, three weeks
# [9] = PALA 2%, 10 μl, pH 4.5, three weeks
# [10] = PALA 2%, 25 μl, pH 4.5, three weeks
# [11] = PALA 4%, 25 μl, pH 4.5, three weeks
# [12] = PALA 6%, 10 μl, pH 4.5, three weeks
# [13] = PALA 6%, 25 μl, pH 4.5, three weeks
compound,measurement,setting,value
"N[C@@H](CN(O)N=O)C(=O)O [L-alanosine, L-2-amino-3-(N-hydroxy, N-nitrosamino) propionic acid]","Hamster Flank Organ Hair Mass, Treated Mean","hamster flank organ; L-alanosine 0.1%, 25 μl, pH 7.5, once a day, five days a week, three weeks",0.68 mg
same,Percent Inhibition of Hair Growth,"hamster flank organ; L-alanosine 0.1%, 25 μl, pH 7.5, three weeks",18%
same,"Hamster Flank Organ Hair Mass, Treated Mean",hamster flank organ; [5],0.67 mg
same,Percent Inhibition of Hair Growth,hamster flank organ; [5],32%
same,"Hamster Flank Organ Hair Mass, Treated Mean",hamster flank organ; [6],0.38 mg
same,Percent Inhibition of Hair Growth,hamster flank organ; [6],47%
same,"Hamster Flank Organ Hair Mass, Treated Mean",hamster flank organ; [7],0.51 mg
same,Percent Inhibition of Hair Growth,hamster flank organ; [7],61%
same,"Hamster Flank Organ Hair Mass, Treated Mean",hamster flank organ; [8],0.07 mg
same,Percent Inhibition of Hair Growth,hamster flank organ; [8],92%
same,Nature of the hair on the treated organ,"hamster flank organ; treated vs untreated organ, Table 1 footnote",more vellous
same,reduction in ADP levels in hair follicles,[1],40%
same,reduction in AMP levels in hair follicles,[1],50%
same,reduction in ATP levels in hair follicles,[1],29%
same,inhibition of adenylosuccinate synthetase activity,[2],about 49%
"O=C(O)C[C@H](NC(=O)CP(=O)(O)O)C(=O)O [PALA, N-phosphonacetyl-L-aspartic acid]","Hamster Flank Organ Hair Mass, Treated Mean",hamster flank organ; [9],1.36 mg
same,Percent Inhibition of Hair Growth,hamster flank organ; [9],13%
same,"Hamster Flank Organ Hair Mass, Treated Mean",hamster flank organ; [10],1.34 mg
same,Percent Inhibition of Hair Growth,hamster flank organ; [10],19%
same,"Hamster Flank Organ Hair Mass, Treated Mean",hamster flank organ; [11],0.85 mg
same,Percent Inhibition of Hair Growth,hamster flank organ; [11],50%
same,"Hamster Flank Organ Hair Mass, Treated Mean",hamster flank organ; [12],0.37 mg
same,Percent Inhibition of Hair Growth,hamster flank organ; [12],78%
same,"Hamster Flank Organ Hair Mass, Treated Mean",hamster flank organ; [13],0.23 mg
same,Percent Inhibition of Hair Growth,hamster flank organ; [13],87%
same,inhibition of CDP (hair follicle content),[3],19%
same,inhibition of CTP (hair follicle content),[3],60%
same,inhibition of UDP (hair follicle content),[3],25%
same,inhibition of UTP (hair follicle content),[3],50%
same,reduction of aspartate transcarbamylase activity,[4],72%
